Results from PubChem BioAssay AID192 (DTP/NCI, 2004).
Where “and” joins values, the source holds several entries; their conditions need not be identical. Equal entries are not always repeated. Toxic doses and inconclusive results are not listed. Rule for the calls: active = survival T/C of 150% or more; inactive = T/C below 125% in these data. Peptide text beside a SMILES is read from it. * marks the point of attachment. Cbz = O=C(OCc1ccccc1)*

Test system: BDF1 mice, B16 melanoma ip, median survival T/C
Assay: NCI In Vivo Anticancer Drug Screen. Data for tumor model B16 Melanoma (intraperitoneal) in B6D2F1 (BDF1) mice
Settings: endpoint: median survival time, higher = longer survival
How it was run: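 Survival or tumor size is measured after treatment of tumor-bearing mice and normalised to the vehicle-treated control group.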

[1] = dose: 0.5 mg/kg/injection, schedule: Q01DX009 (ip), vehicle: saline
[2] = dose: 1.0 mg/kg/injection, schedule: Q01DX009 (ip), vehicle: saline
[3] = dose: 2.0 mg/kg/injection, schedule: Q01DX009 (ip), vehicle: saline
[4] = dose: 12.5 mg/kg/injection, schedule: Q04DX003 (ip), vehicle: Klucel (hydroxypropylcellulose) (HPC)
[5] = dose: 25.0 mg/kg/injection, schedule: Q04DX003 (ip), vehicle: Klucel (hydroxypropylcellulose) (HPC)
[6] = dose: 100.0 mg/kg/injection, schedule: Q01DX009 (ip), vehicle: Klucel (hydroxypropylcellulose) (HPC)
[7] = dose: 200.0 mg/kg/injection, schedule: Q01DX009 (ip), vehicle: Klucel (hydroxypropylcellulose) (HPC)
[8] = dose: 400.0 mg/kg/injection, schedule: Q01DX009 (ip), vehicle: Klucel (hydroxypropylcellulose) (HPC)
[9] = dose: 25.0 mg/kg/injection, schedule: Q01DX009 (ip), vehicle: saline with Tween-80
[10] = dose: 50.0 mg/kg/injection, schedule: Q01DX009 (ip), vehicle: saline with Tween-80
[11] = dose: 100.0 mg/kg/injection, schedule: Q01DX009 (ip), vehicle: saline with Tween-80
[12] = dose: 200.0 mg/kg/injection, schedule: Q01DX009 (ip), vehicle: saline with Tween-80
[13] = dose: 400.0 mg/kg/injection, schedule: Q01DX009 (ip), vehicle: saline with Tween-80
[14] = dose: 12.5 mg/kg/injection, schedule: Q01DX009 (ip), vehicle: Klucel (hydroxypropylcellulose) (HPC)
[15] = dose: 25.0 mg/kg/injection, schedule: Q01DX009 (ip), vehicle: Klucel (hydroxypropylcellulose) (HPC)

Measured: T/C

CCCCC1(CC)COC(C)(c2ccccc2)OC1 (centres undefined)
inactive: dose: 75.0 mg/kg/injection, schedule: Q01DX009 (ip), vehicle: saline with Tween-80 108 % of control | dose: 150.0 mg/kg/injection, schedule: Q01DX009 (ip), vehicle: saline with Tween-80 106 % of control | dose: 300.0 mg/kg/injection, schedule: Q01DX009 (ip), vehicle: saline with Tween-80 98 % of control

COC1=C2CC(C)CC(OC)C(O)C(C)/C=C(\C)C(OC(N)=O)C(OC)/C=C\C=C(/C)C(=O)NC(=C(/C=N/N3CCCCC3)C1=O)C2=O (centres undefined)
inactive: dose: 12.5 mg/kg/injection, schedule: Q01DX005 (ip), vehicle: other 101 % of control | dose: 25.0 mg/kg/injection, schedule: Q01DX005 (ip), vehicle: other 98 % of control | dose: 50.0 mg/kg/injection, schedule: Q01DX005 (ip), vehicle: other 97 % of control | dose: 100.0 mg/kg/injection, schedule: Q01DX005 (ip), vehicle: other 88 % of control | dose: 200.0 mg/kg/injection, schedule: Q01DX005 (ip), vehicle: other 97 % of control

CC[CH2][Sn]([Cl])([Cl])[CH2]CC
inactive: [1] 93 % of control and 100 % of control | [2] 89 % of control and 100 % of control | [3] 93 % of control

Cc1ccccc1NC(=S)N(C)C
inactive: dose: 6.25 mg/kg/injection, schedule: Q04DX003 (ip), vehicle: Klucel (hydroxypropylcellulose) (HPC) 96 % of control | [4] 100 % of control | [5] 88 % of control and 100 % of control

CCOc1ccccc1NC(=O)Nc1ccccc1OC
inactive: [6] 86 % of control | [7] 98 % of control | [8] 89 % of control

CCCCCCCCCCCCCCCCCCOCC(CO)OC (centres undefined)
inactive: [9] 102 % of control | [10] 100 % of control | [11] 98 % of control | [12] 92 % of control

COc1ccc(-c2ccc(OC)c(OC)c2OC)c(N)c1
inactive: [11] 107 % of control | [12] 107 % of control | [13] 94 % of control

NNC(=O)c1ccc(Cl)cc1Cl
inactive: [14] 100 % of control | [4] 103 % of control | [15] 86 % of control | [5] 93 % of control

CCCc1c2cc(OC)c(OC)cc2cc2c3cc(OC)c(OC)cc3cc[n+]12 (tested in a mixture with another compound)
inactive: dose: 6.25 mg/kg/injection, schedule: Q01DX009 (ip), vehicle: Klucel (hydroxypropylcellulose) (HPC) 100 % of control | [14] 96 % of control | [15] 100 % of control

CCOC(=O)c1ccc(NCC#N)cc1
inactive: [11] 94 % of control | [12] 97 % of control | [13] 105 % of control

C/C=C(\C)C(=O)OC1CC[N+]2([O-])CCC(COC(=O)/C(=C/C)CO)C12 (centres undefined)
inactive: dose: 18.8 mg/kg/injection, schedule: Q01DX009 (ip), vehicle: saline 102 % of control | dose: 37.5 mg/kg/injection, schedule: Q01DX009 (ip), vehicle: saline 109 % of control | dose: 75.0 mg/kg/injection, schedule: Q01DX009 (ip), vehicle: saline 107 % of control | dose: 150.0 mg/kg/injection, schedule: Q01DX009 (ip), vehicle: saline 107 % of control

CCN(CC)CCCC(C)Nc1cc(C)nc(Nc2nc3cc(Cl)c(Cl)cc3[nH]2)n1 (centres undefined)
inactive: dose: 1.25 mg/kg/injection, schedule: Q01DX009 (ip), vehicle: Klucel (hydroxypropylcellulose) (HPC) 94 % of control | dose: 2.5 mg/kg/injection, schedule: Q01DX009 (ip), vehicle: Klucel (hydroxypropylcellulose) (HPC) 95 % of control | dose: 5.0 mg/kg/injection, schedule: Q01DX009 (ip), vehicle: Klucel (hydroxypropylcellulose) (HPC) 96 % of control | dose: 10.0 mg/kg/injection, schedule: Q01DX009 (ip), vehicle: Klucel (hydroxypropylcellulose) (HPC) 91 % of control

COc1ccc(Cl)cc1NC(=O)Nc1ccc(Cl)c(Cl)c1
inactive: dose: 18.75 mg/kg/injection, schedule: Q01DX009 (ip), vehicle: Klucel (hydroxypropylcellulose) (HPC) 96 % of control | dose: 37.5 mg/kg/injection, schedule: Q01DX009 (ip), vehicle: Klucel (hydroxypropylcellulose) (HPC) 95 % of control | dose: 75.0 mg/kg/injection, schedule: Q01DX009 (ip), vehicle: Klucel (hydroxypropylcellulose) (HPC) 90 % of control

O=C(NC(Cc1ccccc1)C(=O)NC(Cc1ccc(O)cc1)C(=O)O)OCc1ccccc1 (stereo not drawn) (Cbz-Phe-Tyr-OH; configuration not given here)
inactive: [10] 105 % of control | [11] 86 % of control

CCC(=O)O[C@H]1CC[C@H]2[C@@H]3[C@@H](C)CC4=CC(=O)CC[C@]4(C)[C@H]3CC[C@]12C
inactive: [9] 98 % of control | [10] 91 % of control | [11] 87 % of control and 89 % of control | dose: 100.0 mg/kg/injection, schedule: Q04DX003 (ip), vehicle: saline with Tween-80 100 % of control | dose: 200.0 mg/kg/injection, schedule: Q04DX003 (ip), vehicle: saline with Tween-80 100 % of control | dose: 400.0 mg/kg/injection, schedule: Q04DX003 (ip), vehicle: saline with Tween-80 86 % of control

O=c1oc(/C=C/c2ccccc2)nc2cc(Cl)ccc12
inactive: [6] 109 % of control

CC(=O)OCC1OC([Se][As](C)C)C(OC(C)=O)C(OC(C)=O)C1OC(C)=O (centres undefined)
inactive: dose: 3.13 mg/kg/injection, schedule: Q01DX009 (ip), vehicle: saline with Tween-80 88 % of control | dose: 6.25 mg/kg/injection, schedule: Q01DX009 (ip), vehicle: saline with Tween-80 100 % of control | dose: 12.5 mg/kg/injection, schedule: Q01DX009 (ip), vehicle: saline with Tween-80 90 % of control

O=C1c2ccccc2S(=O)(=O)c2ccc(Br)cc21
inactive: [6] 93 % of control | [7] 90 % of control | [8] 93 % of control

Cc1noc(/N=C/c2cccc(Cl)c2)c1C
inactive: dose: 175.0 mg/kg/injection, schedule: Q04DX003 (ip), vehicle: Klucel (hydroxypropylcellulose) (HPC) 107 % of control | dose: 265.0 mg/kg/injection, schedule: Q04DX003 (ip), vehicle: Klucel (hydroxypropylcellulose) (HPC) 116 % of control | dose: 400.0 mg/kg/injection, schedule: Q04DX003 (ip), vehicle: Klucel (hydroxypropylcellulose) (HPC) 109 % of control | dose: 600.0 mg/kg/injection, schedule: Q04DX003 (ip), vehicle: Klucel (hydroxypropylcellulose) (HPC) 107 % of control

O=P(N1CCOCC1)(N1CC1)N1CC1
inactive: dose: 6.25 mg/kg/injection, schedule: Q01DX009 (ip), vehicle: saline 115 % of control | dose: 12.5 mg/kg/injection, schedule: Q01DX009 (ip), vehicle: saline 118 % of control

CC[n+]1ccc(Nc2ccc(NC(=O)c3ccc(Nc4cc[n+](CC)c5ccc(N)cc45)cc3)cc2)cc1
inactive: [1] 95 % of control | dose: 0.5 mg/kg/injection, schedule: Q01DX009 (ip), vehicle: water 96 % of control | [2] 102 % of control | dose: 1.0 mg/kg/injection, schedule: Q01DX009 (ip), vehicle: water 113 % of control | [3] 100 % of control | dose: 2.0 mg/kg/injection, schedule: Q01DX009 (ip), vehicle: water 116 % of control | dose: 4.0 mg/kg/injection, schedule: Q01DX009 (ip), vehicle: saline 111 % of control | dose: 4.0 mg/kg/injection, schedule: Q01DX009 (ip), vehicle: water 106 % of control | dose: 8.0 mg/kg/injection, schedule: Q01DX009 (ip), vehicle: saline 114 % of control

CC(CCC(=O)O)(c1cc(Cl)c(O)c(Cl)c1)c1cc(Cl)c(O)c(Cl)c1
inactive: dose: 25.0 mg/kg/injection, schedule: Q01DX009 (ip), vehicle: gum acacia 98 % of control | dose: 50.0 mg/kg/injection, schedule: Q01DX009 (ip), vehicle: gum acacia 115 % of control | dose: 100.0 mg/kg/injection, schedule: Q01DX009 (ip), vehicle: gum acacia 122 % of control

O=C1NC(=O)C(Cc2ccccc2)(c2ccccc2)N1 (centres undefined)
inactive: [10] 105 % of control | [11] 102 % of control

OCC1OC(O)C(O)C(O)C1O (centres undefined)
inactive: dose: 500.0 mg/kg/injection, schedule: Q01DX009 (ip), vehicle: saline 98 % of control | dose: 1000.0 mg/kg/injection, schedule: Q01DX009 (ip), vehicle: saline 93 % of control | dose: 2000.0 mg/kg/injection, schedule: Q01DX009 (ip), vehicle: saline 103 % of control | dose: 4000.0 mg/kg/injection, schedule: Q01DX009 (ip), vehicle: saline 97 % of control
